Data reported in article PMC4660440 (Scientific Reports, 2015).
Where two headings read alike, the source gives them in different places.

Columns and labels:
Type in all cases: cell-based
HeLa = assay: MTT cytotoxicity assay, HeLa; conditions: drug exposure 48 h, mean ± SD (n = 3), read-out: Cytotoxic activity (IC50) HeLa
Procedure: (§1) HeLa, BGC823, A-549, MCF-7 and HT-7702 cell lines were obtained from the ATCC. […] Tumor cells (3500–13,000) were seeded into 96-well microtest plates in 100 μL of culture medium per well, incubated for 48 h in the presence or absence of test compounds (8 different concentrations ranging from 100 to 0.01 μg/mL). For quantitative estimation of cytotoxicity, the (MTT) method was used, essentially performed as described previously. Briefly, cells were washed twice with PBS, fixed for 15 min in 1% glutaraldehyde solution, rinsed twice in PBS, and stained in 0.5% MTT solution for 4 h at 37 °C. […] The initial seeding densities varied among the cell lines to ensure a final absorbance reading in control (untreated) cultures within the range of 0.6–0.8 A492 units. Drug exposure was carried out for 2 days, and the IC50 value, i.e., the drug concentration that decreased the absorbance by 50%, was extrapolated from dose-response data. Each test was performed in triplicate, and the absorbance readings between the triplicates varied by no more than 10%.

BGC-823 = assay: MTT cytotoxicity assay, BGC-823; conditions: Homo sapiens, BGC-823, drug exposure 48 h, mean ± SD (n = 3), read-out: Cytotoxic activity (IC50) BGC-823
Procedure: as §1

A549 = assay: MTT cytotoxicity assay, A549; conditions: Homo sapiens, A549, drug exposure 48 h, mean ± SD (n = 3), read-out: Cytotoxic activity (IC50) A549
Procedure: as §1

MCF-7 = assay: MTT cytotoxicity assay, MCF-7; conditions: Homo sapiens, MCF7, drug exposure 48 h, mean ± SD (n = 3), read-out: Cytotoxic activity (IC50) MCF-7
Procedure: as §1

[1] = MTT cytotoxicity assay, normal hepatic cell line HL-7702; conditions: HL-7702 normal hepatic cells, human normal hepatic immortal cell line, drug exposure 48 h, mean ± SD (n = 3), read-out: Cytotoxic activity (IC50) HL-7702
Procedure: as §1

Compound | IC50 (HeLa; Homo sapiens, HeLa, 48 h) | IC50 (BGC-823) | IC50 (A549) | IC50 (MCF-7) | IC50 at 48 h [1] | IC50 (HeLa)
COc1cc([C@@H]2c3cc4c(cc3[C@@H](Nc3cccc(Br)c3)[C@H]3COC(=O)[C@H]23)OCO4)cc(OC)c1O [Compound 5′] | 8.83 ± 0.12 µM | 13.6 ± 0.16 µM | 11.8 ± 0.74 µM | 10.7 ± 1.48 µM | 44.3 ± 1.78 µM | –
COc1cc([C@@H]2c3cc4c(cc3[C@@H](Nc3ccc(Cl)cc3)[C@H]3COC(=O)[C@H]23)OCO4)cc(OC)c1OC [Compound 9] | 21.32 ± 0.11 µM | 23.1 ± 1.74 µM | 22.8 ± 1.08 µM | 19.3 ± 1.43 µM | 41.6 ± 3.11 µM | –
COc1cc([C@@H]2c3cc4c(cc3[C@@H](Nc3cccc(F)c3)[C@H]3COC(=O)[C@H]23)OCO4)cc(OC)c1OC [Compound 7] | 3.12 ± 0.18 µM | 5.21 ± 1.32 µM | 6.8 ± 0.31 µM | 4.05 ± 0.26 µM | 29.9 ± 0.74 µM | –
COc1cc([C@@H]2c3cc4c(cc3[C@@H](O[C@@H]3O[C@@H]5CO[C@@H](C)O[C@H]5[C@H](O)[C@H]3O)[C@H]3COC(=O)[C@H]23)OCO4)cc(OC)c1O [Etoposide, reference compound] | 59.4 ± 2.45 µM | 25.5 ± 1.42 µM | 20.1 ± 1.95 µM | 25.3 ± 1.93 µM | 24.6 ± 3.82 µM | 59.4 ± 2.45 µM
COc1cc([C@@H]2c3cc4c(cc3[C@@H](Nc3cccc(F)c3)[C@H]3COC(=O)[C@H]23)OCO4)cc(OC)c1O [Compound 7′] | 5.07 ± 0.31 µM | 2.24 ± 0.06 µM | 3.88 ± 0.33 µM | 3.14 ± 0.15 µM | 21.4 ± 1.57 µM | –
COc1cc([C@@H]2c3cc4c(cc3[C@@H](Nc3cccc(Br)c3)[C@H]3COC(=O)[C@H]23)OCO4)cc(OC)c1OC [Compound 5] | 9.01 ± 0.11 µM | 11.2 ± 3.61 µM | 13.4 ± 2.54 µM | 8.35 ± 0.42 µM | 13.58 ± 0.11 µM | –
COc1cccc(N[C@@H]2c3cc4c(cc3[C@@H](c3cc(OC)c(OC)c(OC)c3)[C@H]3C(=O)OC[C@@H]32)OCO4)c1 [Compound 13] | 11.6 ± 0.83 µM | 12.7 ± 1.06 µM | 12.4 ± 0.38 µM | 13.8 ± 3.98 µM | 38.8 ± 2.37 µM | –
COc1ccc(F)cc1N[C@@H]1c2cc3c(cc2[C@@H](c2cc(OC)c(OC)c(OC)c2)[C@H]2C(=O)OC[C@@H]21)OCO3 [Compound 16] | 1.46 ± 0.19 µM | 1.37 ± 0.17 µM | 1.43 ± 0.09 µM | 1.92 ± 0.23 µM | 27.7 ± 0.77 µM | –
COc1cc([C@@H]2c3cc4c(cc3[C@@H](Nc3cccc(Cl)c3)[C@H]3COC(=O)[C@H]23)OCO4)cc(OC)c1OC [Compound 6] | 5.43 ± 0.27 µM | 9.32 ± 1.79 µM | 7.23 ± 0.95 µM | 6.57 ± 0.15 µM | 35.27 ± 0.21 µM | –
COc1cc([C@@H]2c3cc4c(cc3[C@@H](Nc3ccc(Br)cc3)[C@H]3COC(=O)[C@H]23)OCO4)cc(OC)c1OC [Compound 8] | 42.1 ± 0.91 µM | 46.2 ± 2.97 µM | 52.9 ± 4.36 µM | 19.7 ± 0.62 µM | 27.1 ± 2.31 µM | –
COc1cc([C@@H]2c3cc4c(cc3[C@@H](Nc3ccc(F)cc3)[C@H]3COC(=O)[C@H]23)OCO4)cc(OC)c1OC [Compound 10] | 17.51 ± 0.04 µM | 17 ± 0.18 µM | 12.1 ± 0.63 µM | 7.06 ± 0.37 µM | 27.4 ± 1.98 µM | –
COc1ccc(Br)cc1N[C@@H]1c2cc3c(cc2[C@@H](c2cc(OC)c(OC)c(OC)c2)[C@H]2C(=O)OC[C@@H]21)OCO3 [Compound 14] | 7.07 ± 0.63 µM | 6.26 ± 0.36 µM | 6.85 ± 0.75 µM | 4.97 ± 0.03 µM | 87.6 ± 4.13 µM | –
COc1ccc(Cl)cc1N[C@@H]1c2cc3c(cc2[C@@H](c2cc(OC)c(OC)c(OC)c2)[C@H]2C(=O)OC[C@@H]21)OCO3 [Compound 15] | 2.64 ± 0.04 µM | 3.86 ± 0.29 µM | 1.71 ± 0.26 µM | 2.24 ± 0.14 µM | 19.3 ± 1.34 µM | –
COc1ccc(F)cc1N[C@@H]1c2cc3c(cc2[C@@H](c2cc(OC)c(O)c(OC)c2)[C@H]2C(=O)OC[C@@H]21)OCO3 [Compound 16′] | 1.72 ± 0.3 µM | 1.32 ± 0.16 µM | 3.17 ± 0.49 µM | 1.53 ± 0.07 µM | 24.3 ± 0.69 µM | –
COc1ccccc1N[C@@H]1c2cc3c(cc2[C@@H](c2cc(OC)c(O)c(OC)c2)[C@H]2C(=O)OC[C@@H]21)OCO3 [Compound 11′] | 13.5 ± 1.38 µM | 9.68 ± 0.17 µM | 8.68 ± 0.29 µM | 9.42 ± 0.24 µM | 63.57 ± 0.19 µM | –
COc1ccccc1N[C@@H]1c2cc3c(cc2[C@@H](c2cc(OC)c(OC)c(OC)c2)[C@H]2C(=O)OC[C@@H]21)OCO3 [Compound 11] | 13.4 ± 1.31 µM | 14.2 ± 0.98 µM | 14.1 ± 0.37 µM | 10.2 ± 0.61 µM | 37.5 ± 1.75 µM | –

Compound | IC50 (HeLa; Homo sapiens, HeLa, 48 h) | IC50 (BGC-823) | IC50 (A549) | IC50 (MCF-7) | IC50 at 48 h [1] | IC50 (HeLa)
COc1cc([C@@H]2c3cc4c(cc3[C@@H](Nc3ccccc3F)[C@H]3COC(=O)[C@H]23)OCO4)cc(OC)c1OC [Compound 4] | 22.1 ± 0.81 µM | 22.7 ± 0.97 µM | 16.8 ± 1.22 µM | 16.1 ± 0.17 µM | 16 ± 0.66 µM | –
COc1cc([C@@H]2c3cc4c(cc3[C@@H](Nc3ccc(F)cc3)[C@H]3COC(=O)[C@H]23)OCO4)cc(OC)c1O [Compound 10′] | 16.32 ± 0.09 µM | 28.61 ± 0.06 µM | 17.7 ± 0.47 µM | 9.84 ± 0.73 µM | 29.6 ± 2.33 µM | –
COc1cc([C@@H]2c3cc4c(cc3[C@@H](Nc3ccccc3Br)[C@H]3COC(=O)[C@H]23)OCO4)cc(OC)c1OC [Compound 2] | 26.6 ± 2.03 µM | 17.9 ± 0.98 µM | 35.1 ± 2.37 µM | 29.1 ± 1.78 µM | 65.9 ± 2.37 µM | –
COc1ccc(Br)cc1N[C@@H]1c2cc3c(cc2[C@@H](c2cc(OC)c(O)c(OC)c2)[C@H]2C(=O)OC[C@@H]21)OCO3 [Compound 14′] | 6.47 ± 0.17 µM | 22.2 ± 2.02 µM | 54.3 ± 4.49 µM | 4.21 ± 0.25 µM | 87.6 ± 5.04 µM | –
COc1cc([C@@H]2c3cc4c(cc3[C@@H](Nc3ccc(Cl)cc3)[C@H]3COC(=O)[C@H]23)OCO4)cc(OC)c1O [Compound 9′] | 16.7 ± 1.31 µM | 14.3 ± 1.14 µM | 29.8 ± 0.75 µM | 37.68 ± 0.16 µM | 15.8 ± 1.17 µM | –
COc1cc([C@@H]2c3cc4c(cc3[C@@H](Nc3ccccc3)[C@H]3COC(=O)[C@H]23)OCO4)cc(OC)c1OC [Compound 1] | 35.1 ± 1.03 µM | 86.5 ± 4.21 µM | 43.2 ± 3.32 µM | – | 41.8 ± 2.47 µM | –
COc1cc([C@@H]2c3cc4c(cc3[C@@H](Nc3ccccc3)[C@H]3COC(=O)[C@H]23)OCO4)cc(OC)c1O [Compound 1′] | 44.34 ± 0.34 µM | 68.2 ± 4.13 µM | 42.5 ± 5.11 µM | 26.8 ± 0.67 µM | 53.4 ± 4.34 µM | –
COc1cccc(N[C@@H]2c3cc4c(cc3[C@@H](c3cc(OC)c(O)c(OC)c3)[C@H]3C(=O)OC[C@@H]32)OCO4)c1 [Compound 13′] | 12.3 ± 0.74 µM | 13.8 ± 1.42 µM | 7.27 ± 2.38 µM | 11 ± 1.26 µM | 39.8 ± 2.73 µM | –
COc1cc([C@@H]2c3cc4c(cc3[C@@H](Nc3ccccc3F)[C@H]3COC(=O)[C@H]23)OCO4)cc(OC)c1O [Compound 4′] | 20.7 ± 0.75 µM | 17.8 ± 0.34 µM | 15.6 ± 1.75 µM | 15.3 ± 0.42 µM | 31.5 ± 2.81 µM | –
COc1cc([C@@H]2c3cc4c(cc3[C@@H](Nc3ccccc3Cl)[C@H]3COC(=O)[C@H]23)OCO4)cc(OC)c1OC [Compound 3] | 26.7 ± 1.32 µM | 18.1 ± 1.03 µM | 27.2 ± 1.95 µM | 21.1 ± 0.76 µM | 13.2 ± 1.35 µM | –
COc1cc([C@@H]2c3cc4c(cc3[C@@H](Nc3ccccc3Cl)[C@H]3COC(=O)[C@H]23)OCO4)cc(OC)c1O [Compound 3′] | 23.4 ± 1.4 µM | 23.1 ± 1.87 µM | 20.5 ± 0.42 µM | 37.5 ± 1.03 µM | 2.42 ± 0.71 µM | –
COc1cc([C@@H]2c3cc4c(cc3[C@@H](Nc3ccccc3Br)[C@H]3COC(=O)[C@H]23)OCO4)cc(OC)c1O [2′] | 31.3 ± 1.43 µM | 28.7 ± 1.04 µM | 44.9 ± 3.12 µM | 27.6 ± 0.91 µM | 47.4 ± 3.14 µM | –
COc1cc([C@@H]2c3cc4c(cc3[C@@H](Nc3ccc(Br)cc3)[C@H]3COC(=O)[C@H]23)OCO4)cc(OC)c1O [Compound 8′] | 21.07 ± 0.17 µM | 62.1 ± 4.39 µM | 62.4 ± 3.66 µM | 28.9 ± 1.06 µM | 32.1 ± 0.96 µM | –
COc1cc([C@@H]2c3cc4c(cc3[C@@H](Nc3cccc(Cl)c3)[C@H]3COC(=O)[C@H]23)OCO4)cc(OC)c1O [Compound 6′] | 5.13 ± 0.05 µM | 6.59 ± 0.21 µM | 5.03 ± 1.07 µM | 4.75 ± 0.37 µM | 32.5 ± 0.86 µM | –
COc1ccc(Cl)cc1N[C@@H]1c2cc3c(cc2[C@@H](c2cc(OC)c(O)c(OC)c2)[C@H]2C(=O)OC[C@@H]21)OCO3 [Compound 15′] | 5.89 ± 0.48 µM | 27.1 ± 1.17 µM | 29.7 ± 1.67 µM | 2.16 ± 0.37 µM | 67.6 ± 4.32 µM | –
